Here are results for eight molecules from ChEMBL document CHEMBL1201862, “PubChem BioAssay data set” (2004).

SMILES strings stand for the structures.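 Compound exposure: 48 hours, 5 concentrations, 96-well plates. At the GI50, growth is halved.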 Active and inactive are the calls of the source. No stated cut-off is given here; in the data, active = GI50 up to about 1.1 µM and inactive = higher.

Common to all, as to test: DTP human tumour cell line panel, 48 h
Experiment [1] concerns 786-0.
Experiment [2] deals with DU-145.
The subject of experiment [3] is HCC 2998.
Experiment [4] relates to HT-29.
For experiment [5], the system named is Hs-578T.
Experiment [6] has as its system K562.
The test system of experiment [7] is LOX IMVI.
The subject of experiment [8] is MDA-MB-231.
Experiment [9] has as its system MDA-MB-435.
Experiment [10] concerns MOLT-4.
In experiment [11] the test system is PC-3.
Experiment [12] has as its system RPMI-8226.
Experiment [13] concerns SF-295.
For experiment [14], the system named is SK-MEL-28.
Experiment [15] concerns SNB-19.
Experiment [16] concerns SNB-75.
Experiment [17] has as its system SR.
Experiment [18] relates to U-251.
Experiment [19] has as its system NCI-H460.
Experiment [20] has as its system RXF 393.

For `COC(=O)/C=C/c1cc2c(cc1-c1c(C(=O)O)cc(OC)c(OC)c1OC)OCO2`, the GI50 in experiment [1], in experiment [2], in [3], in experiment [4], in experiment [5] and in [6] was > 10 µM (inactive) in each case. The GI50 in experiment [7], in experiment [8], in [9], in experiment [10], in experiment [11] and in experiment [12] was > 10 µM (inactive) throughout. For the same molecule, the GI50 in [13], in [14], in experiment [15], in experiment [16], in experiment [17] and in [18] was > 10 µM (inactive) each time.
`CCc1ccccc1NC(=O)/C=C/c1ccccc1`: the GI50 (as a rule, the concentration that inhibits growth by half) in experiment [1] was > 100 µM (inactive); in [2], > 100 µM (inactive); in experiment [3], > 100 µM (inactive); in [4] it was > 100 µM (inactive); in experiment [5], 70.6 µM (inactive); in experiment [6] it was > 100 µM (inactive). Moreover, the GI50 in experiment [7], in experiment [8], in experiment [9], in [10], in experiment [19] and in experiment [11] was > 100 µM (inactive) throughout. For the same molecule, the GI50 in experiment [12], in [13], in experiment [14], in experiment [15], in experiment [16] and in experiment [17] was > 100 µM (inactive) each time. In experiment [18], the GI50 is 85.9 µM (inactive).
Consider `COC1CC(OC2C(C)OC(OC3C(C)OC(OC4C(C)OC(O[C@H]5CC[C@@]6(C)C(=CC[C@]7(O)[C@@H]6C[C@@H](OC(=O)/C=C/c6ccccc6)[C@@]6(C)[C@]7(O)CC[C@@]6(O)C(C)=O)C5)CC4OC)CC3OC)CC2OC)OC(C)C1O` (stereo partly drawn), for which the GI50 in experiment [1], in [2], in experiment [3], in experiment [4], in experiment [5] and in [6] was > 12.5 µM (inactive) throughout. For the same molecule, the GI50 is > 12.5 µM (inactive) in experiment [7]; > 12.5 µM (inactive) in experiment [8]; > 12.5 µM (inactive) in experiment [9]; > 12.5 µM (inactive) in [10]; > 12.5 µM (inactive) in experiment [11]; 5.98 µM (inactive) in experiment [12]. The GI50 in experiment [13], in [14], in [15], in experiment [16], in [17] and in [18] was > 12.5 µM (inactive) throughout.
Take `CC1=C(Br)C(=O)C(C)=C(Br)C1=O.Cc1c(O)c(Br)c(C)c(O)c1Br`: the GI50 in experiment [1] was 1.77 µM (inactive); in [2] it was 2.31 µM (inactive); in experiment [4] it was 2.07 µM (inactive); in [5] it was 5.92 µM (inactive); in [6] it was 1.41 µM (inactive); in [7], 1.87 µM (inactive). In addition, the GI50 in [8] was 4.4 µM (inactive); in [9] it was 1.89 µM (inactive); in experiment [10], 0.783 µM (active); in [19], 6.71 µM (inactive); in experiment [11], 2.05 µM (inactive); in experiment [12], 2.27 µM (inactive). In addition, the GI50 was 1.88 µM (inactive) in experiment [20]; 16.3 µM (inactive) in experiment [13]; 1.91 µM (inactive) in [14]; 18.1 µM (inactive) in experiment [15]; 14.2 µM (inactive) in [16]; 0.925 µM (active) in experiment [17]. In addition, the GI50 in experiment [18] was 6.47 µM (inactive).
On to `CC(=O)O[C@H]1CCn2c3c(c(C)c21)C(=O)C(N1CC1)=C(C)C3=O`, for which the GI50 in experiment [1] is > 10 µM (inactive); in experiment [2], 4.21 µM (inactive); in [3], > 10 µM (inactive); in experiment [4], 2.84 µM (inactive); in experiment [5] it was > 10 µM (inactive); in experiment [6], > 10 µM (inactive). The GI50 in experiment [7] was > 10 µM (inactive); in experiment [8], > 10 µM (inactive); in experiment [9] it was > 10 µM (inactive); in experiment [10] it was > 10 µM (inactive); in experiment [19], 3.52 µM (inactive); in experiment [11], > 10 µM (inactive). The GI50 in experiment [12] is > 10 µM (inactive); in [13], 5.11 µM (inactive); in experiment [15], > 10 µM (inactive); in experiment [16], 8.51 µM (inactive); in experiment [17], > 10 µM (inactive); in [18], > 10 µM (inactive).
On to `N#C/C(N)=C(C#N)/N=C/N`, for which the GI50 in experiment [1], in experiment [2], in experiment [3], in [4], in [5] and in experiment [6] was > 100 µM (inactive) throughout. The GI50 in experiment [7], in experiment [8], in [9], in [10], in experiment [19] and in experiment [11] was > 100 µM (inactive) each time. For the same molecule, the GI50 in experiment [12], in [13], in experiment [14], in [16], in experiment [17] and in [18] was > 100 µM (inactive) throughout.
Consider `Cc1ccc(CSC(=N)Nc2ccccc2)cc1C`, for which the GI50 in experiment [1] was 19.3 µM (inactive); in [2] it was 20.7 µM (inactive); in experiment [4], 19.1 µM (inactive); in experiment [5], 23.2 µM (inactive); in [6], 21.2 µM (inactive); in [7], 18.9 µM (inactive). Further, the GI50 in experiment [8] was 16.2 µM (inactive); in experiment [9], 15.2 µM (inactive); in experiment [10] it was 24.2 µM (inactive); in experiment [19], 18.6 µM (inactive); in [11], 22.5 µM (inactive); in [12] it was 22.5 µM (inactive). For the same molecule, the GI50 was 15.7 µM (inactive) in experiment [20]; 25 µM (inactive) in [13]; 24.7 µM (inactive) in [14]; 23.7 µM (inactive) in experiment [15]; 25.8 µM (inactive) in [16]; 19.5 µM (inactive) in experiment [17]. The GI50 in experiment [18] was 16.1 µM (inactive).
Take `C[N+](C)(C)c1ncnc2c1ncn2C1CCCCO1` (stereo not drawn): the GI50 in experiment [1], in experiment [2], in experiment [4], in [5], in experiment [6] and in experiment [7] was > 100 µM (inactive) in each case. Moreover, the GI50 in experiment [8], in experiment [9], in experiment [10], in [19], in [11] and in experiment [12] was > 100 µM (inactive) in each case. Moreover, the GI50 in experiment [20], in experiment [13], in experiment [14], in [15], in experiment [16] and in experiment [17] was > 100 µM (inactive) in each case. The GI50 in experiment [18] is > 100 µM (inactive).
